# Experimental data from US11339193B2, “CDP protein secretion inhibitors” (KEZAR LIFE SCIENCES, priority 2018, dated 2022).
# Like-named read-outs stand apart in the source and are kept apart here. Numbered stars: 1 amine (or outer) side, 2 acyl side, 3 side chain; on linkers, the order of the positions; unused ones are H or OH. Square brackets hold non-standard residues; d marks the D form. Peptide text beside a SMILES is read from it. NMeAla(5-Cl-benzothien-3-yl) = CN[C@@H](Cc1csc2ccc(Cl)cc12)C(=O)O; X19 = CN([C@@H](Cc1cn(Cc2ccc(Cl)cc2)c2ccccc12)C(=O)[*:2])[*:1]; X15 = CCn1cc(C[C@@H](C(=O)[*:2])N(C)[*:1])c2ccccc21; Ala(1-cyclohexenyl) = N[C@@H](CC1=CCCCC1)C(=O)O; Butanoyl(2R-oxy,4-CN) = N#CCC[C@@H](O)C(=O)O; Abu(4,4,4-F3) = N[C@@H](CC(F)(F)F)C(=O)O; X12 = O=C([C@H](CC1=CCCC1)N[*:1])[*:2]; NMeL = CN[C@@H](CC(C)C)C(=O)O; NMeA = CN[C@@H](C)C(=O)O
# Experiments:
# Format in all cases: cell-based
# [1] = system: PD1-ss+10aa/Gaussia Luciferase; assay: Dox induced PD1-ss-Gluc assay; conditions: Flp-In 293 T-REx cells, doxycycline, 24 hours; read-out: PD1ss Gluc IC50
# Summary of the method: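 Stable Flp-In 293 T-REx line expressing doxycycline-inducible Gaussia luciferase fused to the PD1 signal sequence plus 10 amino acids. Cells plated the day before, then exposed to compound dilutions in DMSO/media containing doxycycline at 37 °C, 5% CO2.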
# [2] = system: TNFα-FL/Gaussia Luciferase; assay: Dox induced TNFα-FL-Gluc assay; conditions: Flp-In 293 T-REx cells, doxycycline, 24 hours; read-out: TNFa FL Gluc IC50
# Summary of the method: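 Stable Flp-In 293 T-REx line expressing full-length TNFα (aa 1-233) fused at its C-terminus to Gaussia luciferase under doxycycline-inducible control. Cells plated the day before, then given compound dilutions in DMSO/media containing doxycycline and incubated at 37 °C, 5% CO2.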
# [3] = system: NCI-H929 multiple myeloma cell line; assay: H929 assay (cell viability, Celltiter-Glo); conditions: Homo sapiens, NCI-H929; 48 hours, cell viability; read-out: H929 EC50
# Summary of the method: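 Cells plated in RPMI 1640 with 10% FBS and 2 mM glutamine, treated with compound dilutions in DMSO/media. Incubation 48 h at 37° C, 5% CO2. Viability from luciferase luminescence signal.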
# [4] = system: Prl-ss+10aa/Gaussia Luciferase; assay: Prl-ss-Gluc assay (constitutively active or 24 hr Dox inducible); conditions: read-out: Prl IC50
# Description: Constitutively Active Prl-ss-Gluc Assay
# Flp-In 293 T-REx™ cells were transfected with pcDNA™5/FRT plasmid inserted with cDNA encoding Gaussia Luciferase fused to the 3′ end of cDNA encoding Prl signal sequence plus 10 amino acids (N-[…]-C) (SEQ ID NO:4). Transfected cells were selected for resistance to the selectable markers Hygromycin and Blasticidin to create a stable cell line that constitutively expressed the Prlss+10aa/Gaussia Luciferase fusion protein. The day before assay, cells were trypsinized and plated in 384-well tissue culture plates. The next day, culture media was removed from the wells and replaced with fresh media. Compound dilutions in DMSO/media were added to the wells and incubated at 37° C., 5% CO2.
# 24 hr Dox Inducible Prl-ss-Gluc Assay
# Flp-In 293 T-REx™ cells were transfected with pcDNA™5/FRT/TO plasmid inserted with cDNA encoding Gaussia Luciferase fused to the 3′ end of cDNA encoding Prl signal sequence plus 10 amino acids (N-[…]-C) (SEQ ID NO:5). Transfected cells were selected for resistance to the selectable markers Hygromycin and Blasticidin to create a stable cell line that contained the Prl-ss+10aa/Gaussia Luciferase cDNA insert whose expression was regulated under the T-REx™ system. The day before assay, cells were trypsinized and plated in 384-well tissue culture plates. The next day, compound dilutions in DMSO/media containing doxycycline were added to the wells and incubated at 37° C., 5% CO2.
# HER3ss-Gluc = assay: HER3ss assay; conditions: HEK-293T T-rex cells, transient transfection, doxycycline, 24 h; read-out: HER3 ss IC50
# Description: The mature domain of secreted luciferase from Gaussia princeps (GLuc) was cloned into pcDNA5/FRT/TO. The signal sequence plus four amino acids of the mature domain from HER3 ([…]) (SEQ ID NO:8) were cloned upstream of GLuc mature domain and used in transient transfection experiment. HEK-293T T-rex cells were cultured in Dulbecco's modified Eagle's medium with 10% FBS at 5% CO2. Cells were plated 1×10e6 cells per well in a 6-well plate and incubated for 6 h. Cells were transiently transfected with HER3ss-Gluc using Lipofectamine 2000 (Invitrogen). After overnight incubation, transfected cells were replated in a clear-bottomed, black 96-well plate at a density of 20,000 cells per well. Six hours after plating, the cells were treated with doxycycline (1 μg/ml) and increasing concentrations of the indicated compounds for 24 h. Secreted luciferase in the conditioned media was quantified by luminescence using the BioLux Gaussia Luciferase Assay Kit (New England Biolabs, Ipswich, Mass., USA) and a SpectraMax M5 plate reader (Molecular Devices).
# [5] = system: U266B1 multiple myeloma cell line; assay: U266 assay (cell viability, Celltiter-Glo); conditions: Homo sapiens, U-266; I.A.
# Description: Cells were plated in 384-well tissue culture plates and treated with compound dilutions in DMSO/media. Plates were incubated at 37° C., 5% CO2 for 48 hours. After 48 hours, Celltiter-Glo@ (Promega) was added to each well and luciferase signal was quantified using Tecan Infinite M1000 Pro for cell viability determination.
# [6] = system: JJN3 plasma cell leukemia cell line; assay: JJN-3 assay (Alamar blue); conditions: Homo sapiens, 72 h
# Description: BT474 is a human breast tumor cell line. JJN3 is a human plasma cell leukemia cell line. […] Cells were seeded at 100 000 cells/mL. Aliquots of 5000 cells (50 μL) were added to each well in black, clear bottom 96-well plates. Compounds or control (50 uL of 1% DMSO in cell culture medium) were added to the cells to the indicated final concentrations and cells were incubated for 72 h (unless otherwise specified). After incubation was complete, Alamar blue (10 uL of a 1 mg/mL solution) was added to each well and plates were incubated for 5 h. Fluorescence was then measured (excitation 545 nm, emission 590 nm) and is reported as […] normalized to DMSO control.
# [7] = Flp-In 293 T-REx cells, 24 hours
Structure (SMILES),IC50 [1] [µM],IC50 [2] [µM],EC50 [3] [µM],IC50 ([4]; I.A.) [µM],IC50 (HER3ss-Gluc) [µM],EC50 [5] [µM],"IC50 [4, 7] [µM]",EC50 [6] [µM]
"CCn1cc(C[C@H]2C(=O)N[C@@H](CC(C)C)C(=O)N(C)[C@@H](C)C(=O)O[C@H](CCC#N)C(=O)N[C@@H](CC(F)(F)F)C(=O)N(C)[C@@H](CC(C)C)C(=O)N[C@@H](CC(F)(F)F)C(=O)N2C)c2ccccc21 [C-79] (cyclo(L[NMeA][Butanoyl(2R-oxy,4-CN)][Abu(4,4,4-F3)][NMeL][Abu(4,4,4-F3)][X15]))",0.39,1.49,4.74,> 25,0.112,> 25,–,–
"CC(C)C[C@@H]1NC(=O)[C@H](Cc2csc3ccc(Cl)cc23)N(C)C(=O)[C@H](CC(C)C)NC(=O)[C@H](CC(C)C)N(C)C(=O)[C@H](CC2=CCCCC2)NC(=O)[C@@H](CCC#N)OC(=O)[C@H](C)N(C)C1=O [C-99] (cyclo(L[NMeA][Butanoyl(2R-oxy,4-CN)][Ala(1-cyclohexenyl)][NMeL]L[NMeAla(5-Cl-benzothien-3-yl)]))",0.149,0.605,5.26,–,0.03,> 25,19.8,–
"CC(C)C[C@@H]1NC(=O)[C@H](Cc2cn(Cc3ccc(F)cc3)c3ccccc23)N(C)C(=O)[C@H](CC(C)C)NC(=O)[C@H](CC(C)C)N(C)C(=O)[C@H](CC(C)C)NC(=O)[C@@H](C)OC(=O)[C@H](C)N(C)C1=O [C-30] (HELM PEPTIDE1{L.[meA].[C[C@@H](O[*:1])C(=O)[*:2]].L.[meL].L.[CN([C@@H](Cc1cn(Cc2ccc(F)cc2)c2ccccc12)C(=O)[*:2])[*:1]]}$PEPTIDE1,PEPTIDE1,1:R1-7:R2$$$V2.0)",–,–,–,–,–,–,–,14.2
"CC(C)C[C@@H]1NC(=O)[C@H](Cc2csc3ccc(Cl)cc23)N(C)C(=O)[C@H](CC(C)C)NC(=O)[C@H](CC(C)C)N(C)C(=O)[C@H](CC2=CCCC2)NC(=O)[C@@H](CCC#N)OC(=O)[C@H](C)N(C)C1=O [C-98] (cyclo(L[NMeA][Butanoyl(2R-oxy,4-CN)][X12][NMeL]L[NMeAla(5-Cl-benzothien-3-yl)]))",0.259,0.889,4,–,0.035,> 25,17.9,–
"CC(C)C[C@@H]1NC(=O)[C@H](Cc2cn(Cc3ccc(Cl)cc3)c3ccccc23)N(C)C(=O)[C@H](CC(F)(F)F)NC(=O)[C@H](CC(C)C)N(C)C(=O)[C@H](CC(F)(F)F)NC(=O)[C@@H](CCC#N)OC(=O)[C@H](C)N(C)C1=O [C-84] (cyclo(L[NMeA][Butanoyl(2R-oxy,4-CN)][Abu(4,4,4-F3)][NMeL][Abu(4,4,4-F3)][X19]))",0.037,0.077,0.608,–,0.072,> 25,0.802,–
"CC(C)C[C@@H]1NC(=O)[C@H](CC(C)C)N(C)C(=O)[C@H](CC(F)(F)F)NC(=O)[C@@H](CCC#N)OC(=O)[C@H](C)N(C)C(=O)[C@H](CC2=CCCCC2)NC(=O)[C@H](Cc2csc3ccc(Cl)cc23)N(C)C1=O [C-88] (cyclo(L[NMeAla(5-Cl-benzothien-3-yl)][Ala(1-cyclohexenyl)][NMeA][Butanoyl(2R-oxy,4-CN)][Abu(4,4,4-F3)][NMeL]))",0.149,1.38,5.64,> 25,0.065,> 25,–,–
